We go through 61 compounds from patent US20100022559A1, “BISOXIMES AS FUNGICIDES” (BAYER CROPSCIENCE AG, priority 2006, published 2010).

The data set can be described thus: logP determination by HPLC on a reversed-phase column (C 18), EEC Directive 79/831 Annex V.A8. The data set is classed as physicochemical. As for the experimental part:
The stated logP values were determined in accordance with EEC Directive 79/831 Annex V.A8 by HPLC (high performance liquid chromatography) on a reversed-phase column (C 18). Temperature: 43° C.

Where [1] appears, read: method marker [b], isomer A / isomer B / isomer mixture as noted in the cell.
Where [2] appears, read: method marker [a] (footnote not shown), isomer A / isomer B / isomer mixture as noted in the cell.

For the compound `CC(=NOCC(=O)CON=C(C)c1cccc(C)n1)c1cccc(C)n1` [compound 71], the logP under setting [1] was 2.20^[b].

`CC(=NOCCC(C)ON=C(C)c1cc(C)cc(C)n1)c1cc(C)cc(C)n1` (centres unmarked) [Compound 558]: the logP is, setting by setting: (method marked [b] in Table 1) 2.00^[b]; (method marked [c] in Table 1) 6.11^[c].

Turning to `CC(=NOCC1(CON=C(C)c2cc(C)cc(C)n2)CC(c2ccc(Cl)cc2)=NO1)c1cc(C)cc(C)n1` (centres unmarked) [compound 644], the logP (method marked [b] in Table 1) was 3.28^[b].

Take `CC(=NOCC(C)(C)CON=C(C)c1ccc2c(n1)CCCC2)c1ccc2c(n1)CCCC2` [Compound 303]: the logP (value marked [a]) was 5.49^[a].

On to `C=C(CON=C(C)c1cccc(C)n1)CON=C(C)c1cccnc1Cl` [compound 147], for which the logP under setting [1] is 3.34^[b].

`Cc1cccc(C(=NOCC2(CON=C(c3cccc(C)n3)C3CC3)CC(c3cccc(Cl)c3)=NO2)C2CC2)n1` (centres unmarked) [compound 655]: the logP (method marked [a] in Table 1) is 4.54^[a].

As for `CC(=NOCCCCON=C(C)c1nc(C)c(C)s1)c1cccc(C)n1` [compound 377], the logP (value marked [b]) was 4.62^[b].

`CCOC(=O)C(C)(CON=C(C)c1cccc(C)n1)CON=C(C)c1cccc(C)n1` (centres unmarked) [compound 853]: the logP is, setting by setting: (value marked [b]) 4.06^[b]; (value marked [c]) 5.00^[c].

For `CC(=NOCC(C)CON=C(C)c1cc(N2CCCC2)cc(C)n1)c1cc(N2CCCC2)cc(C)n1` (centres unmarked) [Compound 847], the logP was 1.40^[a] (value marked [a]) and 5.93^[c] (value marked [c]).

`CCC(=NOCCCON=C(CC)c1ncccc1C)c1ncccc1C` (single isomer, unassigned) [compound 94]: the logP under setting [2] was 3.65^[a] (isomer B).

As for `CC(=NOCC(C)(C)CON=C(C)c1cccc(-c2ccccc2)n1)c1cccc(-c2ccccc2)n1` [Compound 575], where the note is “method marked [a] in Table 1”, the logP is 7.36^[a].

As to `CC(=NOCC(C)(C)CON=C(C)c1cc(C2CC2)cc(C)n1)c1cc(C2CC2)cc(C)n1` [Compound 817], the logP reads like this: (value marked [a]) 3.27^[a]; (value marked [c]) 7.14^[c].

For `CC(=NOCC(CON=C(C)c1cc(C)cc(C)n1)c1ccccc1)c1cc(C)cc(C)n1` (centres unmarked) [Compound 554], the logP by setting is: (method marked [b] in Table 1) 2.96^[b]; (method marked [c] in Table 1) 6.33^[c].

As for `CC(=NOCC(C)CON=C(C)c1cc(Cl)cc(C)n1)c1cc(C)cc(C)n1` (racemic) [compound 878], the logP is 5,69^[a] (value marked [a]), 5.69^[b] (value marked [b]) and 7.32^[c] (value marked [c]).

Consider `CC(=NOCC(C)(C)CON=C(c1ccccc1)c1cccc(C)n1)c1cccc(C)n1` [Compound 371], for which the logP (value marked [b]) is 4.51^[b].

On to `C=C(CON=C(C)c1ccc2ccc(C)cc2n1)CON=C(C)c1ccc2ccc(C)cc2n1` [compound 749], for which the logP (method marked [b] in Table 1) was 7.36^[b] and the logP (method marked [c] in Table 1) was 7.36^[c].

For `Cc1cccc(C(=NOCCCON=C(c2ccccc2)c2cccc(C)n2)c2ccccc2)n1` (mixture of isomers) [compound 656], the logP (method marked [a] in Table 1) is 3.68^[a].

For the compound `Cc1cccc(C(=NOCC(C)CON=C(c2cccc(C)n2)C2CC2)C2CC2)n1` (single isomer, unassigned) [compound 162], the logP under setting [2] is 3.28^[a] (isomer A).

For the compound `CC(=NOCC1(CON=C(C)c2ccc(C)c(C)n2)CC1)c1ccc(C)c(C)n1` [Compound 315], the logP runs as follows: (value marked [b]) 2.84^[b]; (value marked [c]) 6.08^[c].

As for `CC(=NOCCCON=C(C)c1cncc(C)c1)c1cncc(C)c1` [compound 163], the logP under setting [2] was 1.54^a].

For the compound `C#CCOc1ccc(C(C)=NOCC(C)CON=C(C)c2ccc(OCC#C)c(C)n2)nc1C` (centres unmarked) [Compound 867], the logP is 5.33^[b] (value marked [b]) and 5.44^[c] (value marked [c]).

As to `CCc1cccc(C(C)=NOCC(C)(C)CON=C(C)c2cccc(C)n2)n1` [Compound 370], the logP (value marked [b]) was 5.78^[b].

For `CCSC(=NOCC(C)CON=C(SCC)c1cccc(C)n1)c1cccc(C)n1` (centres unmarked) [Compound 820], the logP (value marked [a]) is 4.35^[a].

Regarding `CC(=NOCC1(CON=C(C)c2cccc(C)n2)CC(c2ccccc2)=NO1)c1cccc(C)n1` (centres unmarked) [Compound 593], the logP (method marked [a] in Table 1) is 3.74^[a].

With `Cc1cccc(C(=NOCC(C)CON=C(c2cccc(C)n2)C2CC2)C2CC2)n1` (single isomer, unassigned) [Compound 164], the logP under setting [2] is given as 3.51^]a] (isomer B).

Turning to `CC(=NOCC1(CON=C(C)c2cccc(C3CC3)n2)CC1)c1cccc(C2CC2)n1` [Compound 848], the logP (value marked [a]) is 7.36^[a].

With `C=C(CON=C(C#N)c1cccc(C)n1)CON=C(C#N)c1ccc(C)c(C)n1` [compound 828], the logP (value marked [a]) is 4.20^[a].

Consider `CC(=NOCCCCCCON=C(C)c1ncccc1C)c1cccc(C)n1` [compound 464], for which the logP (value marked [b]) is 4.25^[b].

For `CC(=NOCC(CON=C(C)c1nc(C)ccc1C)Cc1ccccc1)c1nc(C)ccc1C` (centres unmarked) [compound 590], the logP (method marked [b] in Table 1) was 4.15^[b] and the logP (method marked [c] in Table 1) is 6.01^[c].

In the case of `CC(=NOCC1(CON=C(C)c2ccc(C)c(C)n2)CC(c2ccc(Cl)cc2)=NO1)c1ccc(C)c(C)n1` (centres unmarked) [compound 633], the logP (method marked [b] in Table 1) is 4.51^[b].

As for `C=C(CON=C(C)c1cc(Cl)cc(Cl)c1)CON=C(C)c1cccc(C)n1` [compound 24], under setting [1], the logP is 6.30^[b].

`CCCC(=NOCC(C)CON=C(CCC)c1ccc(C)c(C)n1)c1ccc(C)c(C)n1` (centres unmarked) [Compound 262]: the logP (value marked [a]) was 6.26^[a].

In the case of `CC(=NOCC(C)CON=C(C)c1cccc(Cl)n1)c1cccc(Cl)n1` (centres unmarked) [compound 568], for the setting “method marked [a] in Table 1”, the logP is 6.08^[a].

Consider `Cc1cc(C)nc(C(N)=NOC/C=C\CON=C(N)c2nc(C)cc(C)n2)n1` [compound 773], for which the logP (value marked [b]) was 1.75^[b].

`C=C(CON=C(C)c1cccc(C)n1)CON=C(CC)c1ncccc1C` (single isomer, unassigned) [compound 143]: under setting [1], the logP is 3.23^[b] (isomer A).

For `CC(=NOCCCCCCON=C(c1ccccc1)c1ncccc1C)c1cccc(C)n1` [compound 341], the logP (value marked [b]) is 4.98^b].

`C/C(=N\OCC1(CO/N=C(\C)c2ccc(C)c(C)n2)CC(c2cccc(Cl)c2)=NO1)c1ccc(C)c(C)n1` [compound 635]: for the setting “method marked [b] in Table 1”, the logP is 4.51^[b].

With `CC(=NOCC(F)CON=C(C)c1cccc(C)n1)c1cccc(C)n1` (centres unmarked) [Compound 212], the logP under setting [1] was 2.94^[b].

For `CC(=NOCCC(C)CCON=C(C)c1ccc(C(F)(F)F)cn1)c1ccc(C(F)(F)F)cn1` (centres unmarked) [compound 832], under “value marked [a]”, the logP was 7.36^[a].

Turning to `C/C(=N\OC[Si](C)(C)CO/N=C(\C)c1cccc(C)n1)c1cccc(C)n1` [(1E,1E′)-1-(6-methylpyridin-2-yl)ethanone O,O′-[(dimethylsilanediyl)bis(methylene)]oxime], the chromatographic logP (HCO2H, HPLC reversed-phase column (C 18), 43° C., read-out: logP (HCO2H)) was 4.5.

In the case of `CC(=NOCCCCCCON=C(C)c1sc(C)nc1C)c1cccc(C)n1` (single isomer, unassigned) [compound 543], the logP (method marked [b] in Table 1) is 4.74^[b] (isomer B).

As to `CC(=NOCCCCCCON=C(C)c1cccc(C)n1)c1cccc(Cl)c1` [compound 456], under “value marked [b]”, the logP was 6.58^[b].

Consider `CC(=NOCC(C)CON=C(C)c1cccc2ccccc12)c1cccc(C)n1` (centres unmarked) [compound 437], for which the logP (value marked [b]) is 5.36^[b].

As to `CCCc1cccc(C(C)=NOCCCCCCON=C(C)c2cccc(C)n2)n1` [compound 463], the logP (value marked [b]) is 6.79^[b].

On to `C/C(=N\OCC(C)(C)CO/N=C(\C)c1cncc(C)n1)c1cccc(C)n1` [compound 492], for which, where the note is “value marked [b]”, the logP is 4.41^[b].

For the compound `CC(=NOCC1(CON=C(C)c2cccc(C)n2)CC(c2ccccc2Cl)=NO1)c1cccc(C)n1` (centres unmarked) [compound 602], under “method marked [b] in Table 1”, the logP is 4.46^[b].

As for `CC(=NOCCCCON=C(Cc1ccccc1)c1ncccc1C)c1cccc(C)n1` [compound 528], the logP (value marked [b]) was 3.24^[b].

In the case of `COCc1nc(/C(N)=N/OCc2ccccc2CO/N=C(\N)c2nc(COC)c(C)c(COC)n2)nc(COC)c1C` [compound 708], the logP (method marked [b] in Table 1) is 2.16^[b].

As for `CON=C(c1ccccc1)c1cccc(C(C)=NOCC(C)CON=C(C)c2cccc(C)n2)n1` (mixture of isomers) [Compound 693], the logP (method marked [b] in Table 1) is 6.22^[b].

`C=C(CON=C(C)c1cccc(C)n1)CON=C(C)c1cccc(CC(C)C)n1` [compound 352]: the logP (value marked [b]) was 6.03^[b].

On to `C=C(CON=C(C)c1cccc(C)n1)CON=C(c1ccccc1)c1ncccc1C` [compound 351], for which the logP (value marked [b]) is 3.89^[b].

As for `C=C(CON=C(C)c1cccc(C)n1)CON=C(C)c1cccc(C(C)=O)n1` [Compound 117], the logP under setting [1] is 4.43^[b].

Regarding `C=C(CON=C(C)c1ccc(Br)nc1)CON=C(C)c1cccc(C)n1` [compound 208], the logP under setting [1] is 4.08^[b].

Turning to `CC(=NOCCCON=C(C)c1cccc(C(F)F)n1)c1cccc(C(F)F)n1` [compound 521], the logP (value marked [a]) is 5.21^[a].

Regarding `COc1cccc(C(C)=NOCCCCON=C(C)c2cccc(C)n2)c1` [compound 443], the logP (value marked [b]) is 4.57^[b].

On to `COc1cccc(C(C)=NOCCCCCCON=C(C)c2cccc(C)n2)c1` [compound 457], for which, where the note is “value marked [b]”, the logP is 5.59^[b].

On to `CC(=NOCC(CON=C(C)c1nc(C)ccc1C)c1ccccc1)c1nc(C)ccc1C` (single isomer, unassigned) [compound 754], for which the logP is 2.91^[b] (method marked [b] in Table 1) and 4.59^[c] (method marked [c] in Table 1).

Take `CC(=NOCC(C)CON=C(c1ccccc1)c1ncccc1C)c1cccc(C)n1` (centres unmarked) [compound 421]: under “value marked [b]”, the logP was 4.15^[b].

For `CC(=NOC(=O)N(C)C(=O)ON=C(C)c1cccc(C)n1)c1cccc(C)n1` [compound 744], the logP (method marked [b] in Table 1) was 2.57^[b].

As for `CC(=NOCC1(CON=C(C)c2cc(C)cc(C)n2)CCCCC1)c1cc(C)cc(C)n1` [Compound 553], the logP was 3.87^[b] (method marked [b] in Table 1) and 7.36^[c] (method marked [c] in Table 1).

As for `CC(=NOC/C=C/CON=C(C)c1nc(C)c(C)s1)c1nc(C)c(C)s1` (single isomer, unassigned) [compound 766], for the setting “value marked [b]”, the logP is 5.08^[b] (isomer A).
